Kd data for two compounds are collected here from US20120283296A1, “PYRROLOPYRAZOLES FOR TREATING CNS DISORDERS” (aFRAXis, Inc., priority 2009, published 2012).

Targets include PAK1 (Homo sapiens, UniProt Q13153); PAK6 (Homo sapiens, UniProt Q9NQU5); PAK7 (Homo sapiens, UniProt Q9P286); PAK4 (Homo sapiens, UniProt O96013); PAK2 (Homo sapiens, UniProt Q13177).
What all share (assay): Competitive binding (test PAK inhibitor affinity) assay, phage-displayed kinase vs immobilized staurosporine

pKd: −log10 of the molar value. Read-outs that look alike come from different tables or passages of the source.

Sequence of PAK6 (Q9NQU5 whole entry): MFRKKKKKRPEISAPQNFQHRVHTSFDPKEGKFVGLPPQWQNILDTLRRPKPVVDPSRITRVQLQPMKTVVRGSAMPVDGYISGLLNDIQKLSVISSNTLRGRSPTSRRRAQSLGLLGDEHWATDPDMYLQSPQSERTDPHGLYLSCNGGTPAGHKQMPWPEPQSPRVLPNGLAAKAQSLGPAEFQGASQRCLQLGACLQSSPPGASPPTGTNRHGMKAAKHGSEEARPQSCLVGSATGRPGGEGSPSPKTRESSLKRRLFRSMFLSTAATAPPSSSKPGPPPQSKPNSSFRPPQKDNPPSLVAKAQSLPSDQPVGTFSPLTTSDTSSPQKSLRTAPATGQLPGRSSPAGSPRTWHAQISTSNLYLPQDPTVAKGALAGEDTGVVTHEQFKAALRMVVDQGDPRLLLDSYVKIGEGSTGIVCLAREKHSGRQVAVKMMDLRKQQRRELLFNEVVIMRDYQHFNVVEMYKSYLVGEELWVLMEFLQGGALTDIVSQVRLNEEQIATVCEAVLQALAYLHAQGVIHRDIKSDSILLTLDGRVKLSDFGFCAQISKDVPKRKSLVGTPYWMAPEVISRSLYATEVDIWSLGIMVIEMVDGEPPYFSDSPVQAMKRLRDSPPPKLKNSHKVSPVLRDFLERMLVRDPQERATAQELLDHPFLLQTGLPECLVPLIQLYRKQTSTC
Sequence of PAK2 (Q13177 whole entry): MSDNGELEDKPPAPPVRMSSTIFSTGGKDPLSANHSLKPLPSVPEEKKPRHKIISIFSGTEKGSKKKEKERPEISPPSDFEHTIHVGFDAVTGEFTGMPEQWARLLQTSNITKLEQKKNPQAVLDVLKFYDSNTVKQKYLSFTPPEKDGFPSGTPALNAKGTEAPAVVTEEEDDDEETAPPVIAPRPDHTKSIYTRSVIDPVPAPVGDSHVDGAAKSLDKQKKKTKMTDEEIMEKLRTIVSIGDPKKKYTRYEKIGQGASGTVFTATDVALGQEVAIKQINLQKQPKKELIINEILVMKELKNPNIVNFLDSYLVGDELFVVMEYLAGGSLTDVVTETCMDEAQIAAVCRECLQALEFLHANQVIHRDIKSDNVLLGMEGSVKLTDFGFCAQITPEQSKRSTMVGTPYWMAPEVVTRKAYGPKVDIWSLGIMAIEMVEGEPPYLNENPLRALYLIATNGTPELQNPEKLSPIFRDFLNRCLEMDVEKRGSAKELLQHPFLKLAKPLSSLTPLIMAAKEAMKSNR
Sequence of PAK1 (Q13153 whole entry): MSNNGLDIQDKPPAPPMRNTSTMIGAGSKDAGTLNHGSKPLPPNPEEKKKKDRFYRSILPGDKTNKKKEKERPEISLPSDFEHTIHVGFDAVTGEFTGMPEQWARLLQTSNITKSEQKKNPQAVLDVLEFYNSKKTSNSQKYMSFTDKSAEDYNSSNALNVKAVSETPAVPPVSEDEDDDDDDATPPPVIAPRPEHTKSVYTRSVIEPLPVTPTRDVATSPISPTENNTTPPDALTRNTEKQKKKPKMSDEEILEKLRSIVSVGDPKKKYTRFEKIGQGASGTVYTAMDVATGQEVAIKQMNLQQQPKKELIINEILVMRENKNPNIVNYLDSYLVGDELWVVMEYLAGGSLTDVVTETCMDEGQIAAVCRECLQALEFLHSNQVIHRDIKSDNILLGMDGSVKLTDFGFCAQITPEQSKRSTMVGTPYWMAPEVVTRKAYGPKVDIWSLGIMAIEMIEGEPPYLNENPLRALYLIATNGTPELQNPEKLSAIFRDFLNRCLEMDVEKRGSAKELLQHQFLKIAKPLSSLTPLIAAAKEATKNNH
Sequence of PAK7 (Q9P286 whole entry): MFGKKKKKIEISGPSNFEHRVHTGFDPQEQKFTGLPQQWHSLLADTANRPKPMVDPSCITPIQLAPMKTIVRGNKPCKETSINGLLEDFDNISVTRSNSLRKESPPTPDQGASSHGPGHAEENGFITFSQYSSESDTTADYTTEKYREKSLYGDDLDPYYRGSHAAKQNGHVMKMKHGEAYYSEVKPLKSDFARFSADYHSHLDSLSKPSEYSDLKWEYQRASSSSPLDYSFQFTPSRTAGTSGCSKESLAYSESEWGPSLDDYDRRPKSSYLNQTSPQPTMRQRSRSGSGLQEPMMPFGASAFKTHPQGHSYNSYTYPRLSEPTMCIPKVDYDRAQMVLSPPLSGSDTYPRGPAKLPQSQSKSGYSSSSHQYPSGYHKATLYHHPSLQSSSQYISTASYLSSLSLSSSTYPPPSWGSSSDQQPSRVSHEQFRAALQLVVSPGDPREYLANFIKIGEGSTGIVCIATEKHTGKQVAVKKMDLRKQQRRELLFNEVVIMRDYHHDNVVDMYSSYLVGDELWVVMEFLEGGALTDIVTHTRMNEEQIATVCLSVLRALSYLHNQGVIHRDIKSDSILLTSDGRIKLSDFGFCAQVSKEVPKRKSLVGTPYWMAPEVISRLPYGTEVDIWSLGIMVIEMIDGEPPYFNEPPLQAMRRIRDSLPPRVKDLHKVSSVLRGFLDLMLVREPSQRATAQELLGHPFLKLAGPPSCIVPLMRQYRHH
Sequence of PAK4 (O96013 whole entry): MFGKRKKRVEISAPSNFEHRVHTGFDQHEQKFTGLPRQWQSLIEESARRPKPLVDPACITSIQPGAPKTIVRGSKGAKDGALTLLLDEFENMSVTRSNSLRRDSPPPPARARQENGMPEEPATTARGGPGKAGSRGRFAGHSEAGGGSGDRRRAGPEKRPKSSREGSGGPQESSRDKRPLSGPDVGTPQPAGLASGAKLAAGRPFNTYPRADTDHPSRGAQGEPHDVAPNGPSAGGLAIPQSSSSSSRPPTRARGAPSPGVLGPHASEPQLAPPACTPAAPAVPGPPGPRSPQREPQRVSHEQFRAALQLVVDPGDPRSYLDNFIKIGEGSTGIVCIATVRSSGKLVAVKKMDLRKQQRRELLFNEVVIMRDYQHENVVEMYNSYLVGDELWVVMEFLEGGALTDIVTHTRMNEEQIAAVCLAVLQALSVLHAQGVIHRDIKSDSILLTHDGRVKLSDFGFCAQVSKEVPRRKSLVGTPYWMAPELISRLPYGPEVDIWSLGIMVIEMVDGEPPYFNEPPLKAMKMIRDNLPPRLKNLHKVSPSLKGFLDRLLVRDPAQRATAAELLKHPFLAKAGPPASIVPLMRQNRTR

A word on the pKd: it is the negative decadic logarithm of the Kd, by convention in mol/L. For the compound `CCOc1cc2ncc(C#N)c(Nc3ccc(F)c(Cl)c3)c2cc1NC(=O)/C=C/CN(C)C` [EKB-569], the pKd at PAK1 (read-out: Kd) was > 5.30; at PAK6, ≤ 5.00; on PAK7, ≤ 5.00; at PAK4 it was ≤ 5.00; on PAK2 (read-out: Kd), ≤ 5.00.

As to `Nc1nc(Nc2ccc(S(N)(=O)=O)cc2)nn1C(=O)c1c(F)cccc1F` [JNJ-7706621], the pKd on PAK1 was ≤ 5.00; on PAK6, > 5.30; at PAK2, ≤ 5.00.
